Measured values taken from PubChem BioAssay (NCI).
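96-well plates; 48 h exposure; 5 concentrations. Endpoints by linear interpolation between flanking doses. Not reached: highest tested concentration assigned. GI50 marks 50% less growth. TGI marks complete inhibition of growth.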

Columns and labels:
Experiment in all cases: growth of human tumour cells (NCI), 48 h
M14 melanoma = tested on: M14 melanoma
COLO 205 colon = tested on: COLO 205 colon
TK-10 renal = tested on: TK-10 renal
HOP-62 NSCLC = tested on: HOP-62 NSCLC
786-0 renal = tested on: 786-0 renal
SNB-19 CNS = tested on: SNB-19 CNS
A498 renal = tested on: A498 renal
KM20L2 colon = tested on: KM20L2 colon
NCI-H23 lung = tested on: NCI-H23 lung
EKVX NSCLC = tested on: EKVX NSCLC
UACC-257 melanoma = tested on: UACC-257 melanoma
K-562 leukemia = tested on: K-562 leukemia
U251 CNS = tested on: U251 CNS
OVCAR-3 ovarian = tested on: OVCAR-3 ovarian
RXF-631 renal = tested on: RXF-631 renal
M19-MEL melanoma = tested on: M19-MEL melanoma
SF-295 CNS = tested on: SF-295 CNS
MALME-3M melanoma = tested on: MALME-3M melanoma
SNB-75 CNS = tested on: SNB-75 CNS
KM12 colon = tested on: KM12 colon
NCI-H226 lung = tested on: NCI-H226 lung
SK-MEL-28 melanoma = tested on: SK-MEL-28 melanoma
SW-620 colon = tested on: SW-620 colon
NCI-H522 lung = tested on: NCI-H522 lung
SF-539 CNS = tested on: SF-539 CNS
UO-31 renal = tested on: UO-31 renal
SK-OV-3 ovarian = tested on: SK-OV-3 ovarian
UACC-62 melanoma = tested on: UACC-62 melanoma
HCT-15 colon = tested on: HCT-15 colon
MOLT-4 leukemia = tested on: MOLT-4 leukemia
SK-MEL-5 melanoma = tested on: SK-MEL-5 melanoma
HCC-2998 colon = tested on: HCC-2998 colon
NCI-H460 lung = tested on: NCI-H460 lung
A549 NSCLC = tested on: A549 NSCLC
ACHN renal = tested on: ACHN renal
SK-MEL-2 melanoma = tested on: SK-MEL-2 melanoma
HL-60(TB) leukemia = tested on: HL-60(TB) leukemia
OVCAR-4 ovarian = tested on: OVCAR-4 ovarian
CAKI-1 renal = tested on: CAKI-1 renal
DLD-1 colon = tested on: DLD-1 colon
SN12C renal = tested on: SN12C renal
DMS 114 small cell lung = tested on: DMS 114 small cell lung
XF 498 CNS = tested on: XF 498 CNS
HCT-116 colon = tested on: HCT-116 colon
OVCAR-5 ovarian = tested on: OVCAR-5 ovarian
HOP-92 NSCLC = tested on: HOP-92 NSCLC
CCRF-CEM leukemia = tested on: CCRF-CEM leukemia
RPMI-8226 leukemia = tested on: RPMI-8226 leukemia
DMS 273 small cell lung = tested on: DMS 273 small cell lung
IGROV1 ovarian = tested on: IGROV1 ovarian
HT29 colon = tested on: HT29 colon
OVCAR-8 ovarian = tested on: OVCAR-8 ovarian
LXFL 529 NSCLC = tested on: LXFL 529 NSCLC

CC(C)OP(=O)(OC(C)C)C([CH2][Sn]([CH3])([CH3])[Cl])P(=O)(OC(C)C)OC(C)C was tested, and the GI50 (M14 melanoma) was 16.4 µM, the TGI (M14 melanoma) was 31.4 µM and the GI50 (COLO 205 colon) was 15.2 µM. It also gave a TGI (COLO 205 colon) of 29.1 µM, a GI50 (TK-10 renal) of 23.2 µM and a TGI (TK-10 renal) of 69.9 µM. The GI50 (HOP-62 NSCLC) was 20.9 µM, the TGI (HOP-62 NSCLC) was 40.4 µM and the GI50 (786-0 renal) was 16.7 µM. The TGI (786-0 renal) was 33.1 µM, the GI50 (SNB-19 CNS) was 30.2 µM and the TGI (SNB-19 CNS) was 86.9 µM. The GI50 (A498 renal) was 19.3 µM, the TGI (A498 renal) was greater than 100 µM and the GI50 (KM20L2 colon) was 17.5 µM. The TGI (KM20L2 colon) was 34.6 µM, the GI50 (NCI-H23 lung) was 18.1 µM and the TGI (NCI-H23 lung) was 44.3 µM. It also gave a GI50 (EKVX NSCLC) of 30.3 µM, a TGI (EKVX NSCLC) of 98 µM and a GI50 (UACC-257 melanoma) of 21.3 µM. The TGI (UACC-257 melanoma) was 65.3 µM, the GI50 (K-562 leukemia) was 25.3 µM and the TGI (K-562 leukemia) was greater than 100 µM. For the same compound, the GI50 (U251 CNS) was 20.4 µM, the TGI (U251 CNS) was 46.3 µM and the GI50 (OVCAR-3 ovarian) was 20.2 µM. For the same compound, the TGI (OVCAR-3 ovarian) was 72.5 µM, the GI50 (RXF-631 renal) was 38.3 µM and the TGI (RXF-631 renal) was greater than 100 µM. The GI50 (M19-MEL melanoma) was 19.8 µM, the TGI (M19-MEL melanoma) was 49.9 µM and the GI50 (SF-295 CNS) was 19.7 µM. It also gave a TGI (SF-295 CNS) of 48.7 µM, a GI50 (MALME-3M melanoma) of 16.3 µM and a TGI (MALME-3M melanoma) of 33.2 µM. The GI50 (SNB-75 CNS) was 19.3 µM, the TGI (SNB-75 CNS) was 43.3 µM and the GI50 (KM12 colon) was 13.4 µM. For the same compound, the TGI (KM12 colon) was 41.9 µM, the GI50 (NCI-H226 lung) was 21.2 µM and the TGI (NCI-H226 lung) was 41.3 µM. For the same compound, the GI50 (SK-MEL-28 melanoma) was 21.3 µM, the TGI (SK-MEL-28 melanoma) was 74.9 µM and the GI50 (SW-620 colon) was 20.2 µM. The TGI (SW-620 colon) was 42.5 µM, the GI50 (NCI-H522 lung) was 6.6 µM and the TGI (NCI-H522 lung) was 23.5 µM. The GI50 (SF-539 CNS) was 24.2 µM, the TGI (SF-539 CNS) was 51.5 µM and the GI50 (UO-31 renal) was 19.9 µM. The TGI (UO-31 renal) was 43.2 µM, the GI50 (SK-OV-3 ovarian) was 25.5 µM and the TGI (SK-OV-3 ovarian) was 64 µM. It also gave a GI50 (UACC-62 melanoma) of 14.1 µM, a TGI (UACC-62 melanoma) of 32.9 µM and a GI50 (HCT-15 colon) of 20.2 µM. The TGI (HCT-15 colon) was 47.4 µM, the GI50 (MOLT-4 leukemia) was 18.2 µM and the TGI (MOLT-4 leukemia) was 46.2 µM. For the same compound, the GI50 (SK-MEL-5 melanoma) was 16.5 µM, the TGI (SK-MEL-5 melanoma) was 31 µM and the GI50 (HCC-2998 colon) was 22.6 µM. The TGI (HCC-2998 colon) was 40.3 µM, the GI50 (NCI-H460 lung) was 16 µM and the TGI (NCI-H460 lung) was 36.3 µM. The GI50 (A549 NSCLC) was 27.7 µM, the TGI (A549 NSCLC) was greater than 100 µM and the GI50 (ACHN renal) was 31 µM. It also gave a TGI (ACHN renal) greater than 100 µM, a GI50 (SK-MEL-2 melanoma) of 15.6 µM and a TGI (SK-MEL-2 melanoma) of 29.9 µM. It also gave a GI50 (HL-60(TB) leukemia) of 4.56 µM, a TGI (HL-60(TB) leukemia) of 18.2 µM and a GI50 (OVCAR-4 ovarian) of 26.8 µM. The TGI (OVCAR-4 ovarian) was greater than 100 µM, the GI50 (CAKI-1 renal) was 19.9 µM and the TGI (CAKI-1 renal) was 55.7 µM. For the same compound, the GI50 (DLD-1 colon) was 36.8 µM, the TGI (DLD-1 colon) was greater than 100 µM and the GI50 (SN12C renal) was 27.9 µM. It also gave a TGI (SN12C renal) greater than 100 µM, a GI50 (DMS 114 small cell lung) of 21.9 µM and a TGI (DMS 114 small cell lung) of 67 µM. The GI50 (XF 498 CNS) was 14.5 µM, the TGI (XF 498 CNS) was 35.1 µM and the GI50 (HCT-116 colon) was 19.7 µM. The TGI (HCT-116 colon) was 42.8 µM, the GI50 (OVCAR-5 ovarian) was 31.5 µM and the TGI (OVCAR-5 ovarian) was greater than 100 µM. It also gave a GI50 (HOP-92 NSCLC) of 13.7 µM, a TGI (HOP-92 NSCLC) of 34.4 µM and a GI50 (CCRF-CEM leukemia) of 20.7 µM. For the same compound, the TGI (CCRF-CEM leukemia) was 64.9 µM, the GI50 (RPMI-8226 leukemia) was 15.2 µM and the TGI (RPMI-8226 leukemia) was 35.1 µM. For the same compound, the GI50 (DMS 273 small cell lung) was 19.8 µM, the TGI (DMS 273 small cell lung) was 53.5 µM and the GI50 (IGROV1 ovarian) was 24.5 µM. For the same compound, the TGI (IGROV1 ovarian) was 97.4 µM, the GI50 (HT29 colon) was 22.1 µM and the TGI (HT29 colon) was 79.2 µM. The GI50 (OVCAR-8 ovarian) was 30.2 µM, the TGI (OVCAR-8 ovarian) was greater than 100 µM and the GI50 (LXFL 529 NSCLC) was 15 µM. For the same compound, the TGI (LXFL 529 NSCLC) was 29.4 µM.
